Laboratory results published in ChEMBL document CHEMBL1129010, “The preparation and evaluation of (+/-)-trans-1-Diazo-8-methoxy-4a-methyl-1,2,3,4,4a,9,10,10a-octahydro-phenanthren-2-one as an inhibitor of human type-1 steroid 5-reductase” (Bioorg Med Chem Lett, 1996).
pKi: −log10 of the molar value. Each block holds one compound with its values, some of them ahead of it.

How the values were obtained:
[1] = target: T1, 3-oxo-5-alpha-steroid 4-dehydrogenase 1 (Homo sapiens, UniProt P18405); assay: Apparent inhibitory activity against human Steroid 5-alpha-reductase type I expressed in CHO cells; Active; assay type: cell-based
T1 sequence (P18405 whole entry): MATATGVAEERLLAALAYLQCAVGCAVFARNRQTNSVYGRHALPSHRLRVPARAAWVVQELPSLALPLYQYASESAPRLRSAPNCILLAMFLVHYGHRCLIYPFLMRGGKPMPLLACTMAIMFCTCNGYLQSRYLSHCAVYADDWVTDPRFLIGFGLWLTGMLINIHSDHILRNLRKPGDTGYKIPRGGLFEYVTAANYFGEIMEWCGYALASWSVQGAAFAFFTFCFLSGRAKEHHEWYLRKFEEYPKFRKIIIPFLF

[2] = target: T1, 3-oxo-5-alpha-steroid 4-dehydrogenase 1; assay: Selective apparent inhibitory activity against human Steroid 5-alpha-reductase type I expressed in CHO cells; Active; assay type: cell-based
[3] = target: T2, 3-oxo-5-alpha-steroid 4-dehydrogenase 1 (Rattus norvegicus, UniProt P24008); assay: Apparent inhibitory activity against rat prostatic Steroid 5-alpha-reductase type I
T2 sequence (P24008 whole entry): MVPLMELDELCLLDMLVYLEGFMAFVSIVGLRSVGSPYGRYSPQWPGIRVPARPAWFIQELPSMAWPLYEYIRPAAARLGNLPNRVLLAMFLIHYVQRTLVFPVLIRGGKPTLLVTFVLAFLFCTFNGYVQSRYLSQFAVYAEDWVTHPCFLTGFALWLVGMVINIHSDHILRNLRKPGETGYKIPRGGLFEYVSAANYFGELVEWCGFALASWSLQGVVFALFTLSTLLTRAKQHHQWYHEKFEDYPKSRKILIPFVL

[4] = target: T3, 3-oxo-5-alpha-steroid 4-dehydrogenase 2 (Homo sapiens, UniProt P31213); assay: Apparent inhibitory activity against human Steroid 5-alpha-reductase type 2 expressed in CHO cells; assay type: cell-based; settings: read-out: Ki app
T3 sequence (P31213 whole entry): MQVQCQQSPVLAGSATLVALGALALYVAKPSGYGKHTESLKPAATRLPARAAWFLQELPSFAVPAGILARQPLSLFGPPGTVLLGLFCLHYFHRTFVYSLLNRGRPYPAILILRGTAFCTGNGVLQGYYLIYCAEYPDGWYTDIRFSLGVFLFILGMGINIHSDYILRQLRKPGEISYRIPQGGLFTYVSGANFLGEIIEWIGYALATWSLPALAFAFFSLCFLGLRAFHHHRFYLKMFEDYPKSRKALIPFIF

[5] = target: T1, 3-oxo-5-alpha-steroid 4-dehydrogenase 1; assay: Apparent inhibitory activity against human Steroid 5-alpha-reductase type I expressed in CHO cells; assay type: cell-based; settings: read-out: Ki app

SMILES: C[C@]12CCC(C(=O)O)=CC1=CCc1cc(Cl)ccc12 (racemic)
Ki [2]: Active

SMILES: CC(CO)[C@H]1CC[C@H]2[C@@H]3CC[C@H]4C(=[N+]=[N-])C(=O)CC[C@]4(C)[C@H]3CC[C@]12C (stereo partly specified)
pKi [3]: 7.46

Results, then the compound that gave them:

Ki [1]: Active
SMILES: CN1C(=O)CC[C@@H]2c3ccc(Cl)cc3CC[C@H]21 [BEXLOSTERIDE]

Ki [1]: Active
SMILES: CN1C(=O)CC[C@]2(C)c3ccc(Cl)cc3CC[C@@H]12

pKi [4]: 5.70
pKi [5]: 6.92
SMILES: COc1cccc2c1CC[C@H]1[C-]([N+]#N)C(=O)CC[C@]21C
